Assay results taken from the kinase profiling compilation of Christmann-Franck et al. (2016).

Legend:
Assay in all cases: radiometric filter-binding kinase assay, Kinase HotSpot
Conditions in all cases: compound 0.5 µM; ATP 10 µM
TSSK1B (human) = TSSK1B (human) (UniProt Q9BXA7)
PIM3 (human) = PIM3 (human) (UniProt Q86V86)
EPHA5 (human) = EPHA5 (human) (UniProt P54756)
CAMK2B (human) = CAMK2B (human) (UniProt Q13554)
ITK (human) = ITK (human) (UniProt Q08881)
MUSK (human) = MUSK (human) (UniProt O15146)
FES (human) = FES (human) (UniProt P07332)
RET (human) = RET (human) (UniProt P07949)
CDK6 CCND3 (human) = CDK6 CCND3 (human) (UniProt P30281+Q00534)
PRKG2 (human) = PRKG2 (human) (UniProt Q13237)
Sequence of PRKG2 (human) (Q13237 whole entry, looked up): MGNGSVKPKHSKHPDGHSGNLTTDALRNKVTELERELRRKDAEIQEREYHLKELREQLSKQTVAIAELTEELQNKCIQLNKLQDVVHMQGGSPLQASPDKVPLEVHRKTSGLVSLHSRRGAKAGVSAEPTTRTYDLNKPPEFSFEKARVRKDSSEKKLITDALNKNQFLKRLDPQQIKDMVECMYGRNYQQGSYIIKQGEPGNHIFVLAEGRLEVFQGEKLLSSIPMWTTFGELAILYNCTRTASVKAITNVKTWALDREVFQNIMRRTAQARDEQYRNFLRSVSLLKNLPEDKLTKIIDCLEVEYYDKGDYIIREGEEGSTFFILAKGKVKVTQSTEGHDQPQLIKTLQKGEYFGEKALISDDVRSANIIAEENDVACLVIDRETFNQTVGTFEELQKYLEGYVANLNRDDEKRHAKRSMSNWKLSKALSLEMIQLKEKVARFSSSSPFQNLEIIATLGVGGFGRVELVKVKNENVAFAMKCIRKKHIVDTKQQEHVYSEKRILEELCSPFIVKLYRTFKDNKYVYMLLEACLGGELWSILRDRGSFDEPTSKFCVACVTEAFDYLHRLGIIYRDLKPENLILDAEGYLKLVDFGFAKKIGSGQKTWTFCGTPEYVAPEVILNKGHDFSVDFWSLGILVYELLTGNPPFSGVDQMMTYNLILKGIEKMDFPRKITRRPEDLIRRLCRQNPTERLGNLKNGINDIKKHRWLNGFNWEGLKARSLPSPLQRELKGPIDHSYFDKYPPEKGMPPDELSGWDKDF

GSK3A (human) = GSK3A (human) (UniProt P49840)
IKBKB (human) = IKBKB (human) (UniProt O14920)
ULK2 (human) = ULK2 (human) (UniProt Q8IYT8)
MAP4K5 (human) = MAP4K5 (human) (UniProt Q9Y4K4)
CSF1R (human) = CSF1R (human) (UniProt P07333)
RIPK2 (human) = RIPK2 (human) (UniProt O43353)
PIM2 (human) = PIM2 (human) (UniProt Q9P1W9)
Sequence of PIM2 (human) (Q9P1W9 whole entry, looked up): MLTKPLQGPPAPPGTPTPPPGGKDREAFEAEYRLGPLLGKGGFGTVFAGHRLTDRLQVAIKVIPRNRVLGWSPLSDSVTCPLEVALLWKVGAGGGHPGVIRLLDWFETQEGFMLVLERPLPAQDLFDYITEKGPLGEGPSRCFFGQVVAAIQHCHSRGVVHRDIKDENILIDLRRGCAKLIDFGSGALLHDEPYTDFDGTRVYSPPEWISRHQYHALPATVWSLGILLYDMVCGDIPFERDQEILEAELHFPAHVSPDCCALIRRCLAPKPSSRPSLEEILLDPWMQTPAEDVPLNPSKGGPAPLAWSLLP

MAP3K10 (human) = MAP3K10 (human) (UniProt Q02779)
SGK3 (human) = SGK3 (human) (UniProt Q96BR1)
NEK1 (human) = NEK1 (human) (UniProt Q96PY6)
TYRO3 (human) = TYRO3 (human) (UniProt Q06418)
OXSR1 (human) = OXSR1 (human) (UniProt O95747)
CDK3 CCNE1 (human) = CDK3 CCNE1 (human) (UniProt Q00526+P24864)
MAP4K4 (human) = MAP4K4 (human) (UniProt O95819)
PRKCI (human) = PRKCI (human) (UniProt P41743)
PRKCA (human) = PRKCA (human) (UniProt P17252)
EGFR (human) = EGFR (human) (UniProt P00533)
MATK (human) = MATK (human) (UniProt P42679)
TEK (human) = TEK (human) (UniProt Q02763)
MAPK10 (human) = MAPK10 (human) (UniProt P53779)
MAP2K2 (human) = MAP2K2 (human) (UniProt P36507)
SIK2 (human) = SIK2 (human) (UniProt Q9H0K1)
RPS6KA1 KD1 KD2 (human) = RPS6KA1 KD1 KD2 (human) (UniProt Q15418)
Sequence of RPS6KA1 KD1 KD2 (human) (Q15418 whole entry, looked up): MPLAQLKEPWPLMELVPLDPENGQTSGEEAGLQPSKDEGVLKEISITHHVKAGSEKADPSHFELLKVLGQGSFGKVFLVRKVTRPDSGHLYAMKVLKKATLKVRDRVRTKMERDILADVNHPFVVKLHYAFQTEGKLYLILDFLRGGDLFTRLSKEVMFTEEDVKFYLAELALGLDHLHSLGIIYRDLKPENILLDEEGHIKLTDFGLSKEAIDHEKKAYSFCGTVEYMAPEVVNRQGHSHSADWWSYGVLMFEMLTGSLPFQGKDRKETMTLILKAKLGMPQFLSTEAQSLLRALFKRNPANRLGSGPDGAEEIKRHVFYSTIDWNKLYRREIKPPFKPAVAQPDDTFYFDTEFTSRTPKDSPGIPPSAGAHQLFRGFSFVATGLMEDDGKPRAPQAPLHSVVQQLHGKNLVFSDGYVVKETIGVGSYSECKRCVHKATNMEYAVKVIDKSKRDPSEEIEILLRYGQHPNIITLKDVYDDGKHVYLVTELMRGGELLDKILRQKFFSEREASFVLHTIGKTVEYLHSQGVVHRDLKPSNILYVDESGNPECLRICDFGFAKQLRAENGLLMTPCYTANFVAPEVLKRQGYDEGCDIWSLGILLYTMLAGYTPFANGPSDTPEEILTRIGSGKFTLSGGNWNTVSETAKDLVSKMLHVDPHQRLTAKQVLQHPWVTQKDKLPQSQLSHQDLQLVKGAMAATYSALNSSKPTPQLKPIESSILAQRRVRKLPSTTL

STK3 (human) = STK3 (human) (UniProt Q13188)
BRSK1 (human) = BRSK1 (human) (UniProt Q8TDC3)
Sequence of BRSK1 (human) (Q8TDC3 whole entry, looked up): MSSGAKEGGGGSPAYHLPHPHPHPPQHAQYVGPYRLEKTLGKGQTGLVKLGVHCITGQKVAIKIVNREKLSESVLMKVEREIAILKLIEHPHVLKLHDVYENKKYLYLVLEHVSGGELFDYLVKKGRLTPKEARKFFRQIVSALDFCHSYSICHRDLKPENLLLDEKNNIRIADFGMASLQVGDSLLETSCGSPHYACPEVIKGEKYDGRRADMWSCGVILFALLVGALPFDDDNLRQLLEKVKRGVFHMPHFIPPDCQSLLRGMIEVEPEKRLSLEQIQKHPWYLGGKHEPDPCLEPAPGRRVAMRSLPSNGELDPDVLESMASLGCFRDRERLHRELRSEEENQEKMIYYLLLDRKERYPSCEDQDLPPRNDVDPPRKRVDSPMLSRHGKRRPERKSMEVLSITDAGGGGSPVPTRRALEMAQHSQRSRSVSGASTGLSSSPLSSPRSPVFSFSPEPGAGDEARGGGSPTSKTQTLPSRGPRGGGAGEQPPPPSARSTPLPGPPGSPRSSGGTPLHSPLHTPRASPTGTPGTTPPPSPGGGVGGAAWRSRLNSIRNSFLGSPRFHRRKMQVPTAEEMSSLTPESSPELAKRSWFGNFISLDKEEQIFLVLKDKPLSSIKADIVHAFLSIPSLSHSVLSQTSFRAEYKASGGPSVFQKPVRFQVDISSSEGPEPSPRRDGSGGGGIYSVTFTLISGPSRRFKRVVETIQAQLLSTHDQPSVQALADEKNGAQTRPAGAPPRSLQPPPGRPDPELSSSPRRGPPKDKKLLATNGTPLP

PASK (human) = PASK (human) (UniProt Q96RG2)
[1] = molecular target: JAK1 JH1 catalytic (human) (UniProt P23458)
CAMK4 (human) = CAMK4 (human) (UniProt Q16566)
MINK1 (human) = MINK1 (human) (UniProt Q8N4C8)
MAPKAPK2 (human) = MAPKAPK2 (human) (UniProt P49137)
MST1R (human) = MST1R (human) (UniProt Q04912)
Sequence of MST1R (human) (Q04912 whole entry, looked up): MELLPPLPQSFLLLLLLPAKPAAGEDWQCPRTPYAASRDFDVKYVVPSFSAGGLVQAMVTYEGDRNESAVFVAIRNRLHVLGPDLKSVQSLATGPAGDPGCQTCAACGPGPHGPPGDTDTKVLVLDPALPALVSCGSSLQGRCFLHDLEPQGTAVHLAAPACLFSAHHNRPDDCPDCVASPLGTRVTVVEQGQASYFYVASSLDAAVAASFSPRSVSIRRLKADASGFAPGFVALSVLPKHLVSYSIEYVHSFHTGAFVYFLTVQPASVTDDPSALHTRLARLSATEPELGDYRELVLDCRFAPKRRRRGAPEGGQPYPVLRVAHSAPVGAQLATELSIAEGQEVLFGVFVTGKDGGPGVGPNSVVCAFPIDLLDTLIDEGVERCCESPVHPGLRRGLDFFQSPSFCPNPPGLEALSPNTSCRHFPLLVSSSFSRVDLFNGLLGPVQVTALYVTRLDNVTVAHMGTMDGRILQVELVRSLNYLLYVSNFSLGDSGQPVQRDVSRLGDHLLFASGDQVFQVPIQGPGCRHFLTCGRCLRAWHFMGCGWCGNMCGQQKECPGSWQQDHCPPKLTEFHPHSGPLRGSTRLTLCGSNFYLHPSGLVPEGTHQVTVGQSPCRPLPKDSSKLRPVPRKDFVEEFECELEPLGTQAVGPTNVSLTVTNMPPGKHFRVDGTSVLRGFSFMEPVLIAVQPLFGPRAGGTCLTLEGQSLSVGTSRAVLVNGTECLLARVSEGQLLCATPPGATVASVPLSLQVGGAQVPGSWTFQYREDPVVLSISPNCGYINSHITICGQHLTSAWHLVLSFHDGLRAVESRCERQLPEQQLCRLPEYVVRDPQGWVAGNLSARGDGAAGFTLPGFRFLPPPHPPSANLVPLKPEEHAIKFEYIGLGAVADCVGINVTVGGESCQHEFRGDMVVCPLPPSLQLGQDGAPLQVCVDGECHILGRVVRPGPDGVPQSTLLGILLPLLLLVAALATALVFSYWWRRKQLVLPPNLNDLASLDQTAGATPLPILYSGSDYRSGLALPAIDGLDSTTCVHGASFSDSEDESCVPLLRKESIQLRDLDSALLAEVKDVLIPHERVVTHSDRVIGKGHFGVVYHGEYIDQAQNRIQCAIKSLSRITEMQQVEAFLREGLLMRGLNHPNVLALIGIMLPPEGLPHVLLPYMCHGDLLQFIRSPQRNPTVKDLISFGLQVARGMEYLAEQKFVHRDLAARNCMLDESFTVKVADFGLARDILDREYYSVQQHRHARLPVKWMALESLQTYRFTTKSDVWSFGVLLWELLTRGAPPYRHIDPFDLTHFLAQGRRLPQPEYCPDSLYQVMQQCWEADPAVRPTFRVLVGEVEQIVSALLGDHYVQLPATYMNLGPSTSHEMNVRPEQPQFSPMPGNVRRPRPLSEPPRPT

RPS6KA2 KD1 KD2 (human) = RPS6KA2 KD1 KD2 (human) (UniProt Q15349)

Sequence of EPHA5 (human) (P54756 whole entry, looked up): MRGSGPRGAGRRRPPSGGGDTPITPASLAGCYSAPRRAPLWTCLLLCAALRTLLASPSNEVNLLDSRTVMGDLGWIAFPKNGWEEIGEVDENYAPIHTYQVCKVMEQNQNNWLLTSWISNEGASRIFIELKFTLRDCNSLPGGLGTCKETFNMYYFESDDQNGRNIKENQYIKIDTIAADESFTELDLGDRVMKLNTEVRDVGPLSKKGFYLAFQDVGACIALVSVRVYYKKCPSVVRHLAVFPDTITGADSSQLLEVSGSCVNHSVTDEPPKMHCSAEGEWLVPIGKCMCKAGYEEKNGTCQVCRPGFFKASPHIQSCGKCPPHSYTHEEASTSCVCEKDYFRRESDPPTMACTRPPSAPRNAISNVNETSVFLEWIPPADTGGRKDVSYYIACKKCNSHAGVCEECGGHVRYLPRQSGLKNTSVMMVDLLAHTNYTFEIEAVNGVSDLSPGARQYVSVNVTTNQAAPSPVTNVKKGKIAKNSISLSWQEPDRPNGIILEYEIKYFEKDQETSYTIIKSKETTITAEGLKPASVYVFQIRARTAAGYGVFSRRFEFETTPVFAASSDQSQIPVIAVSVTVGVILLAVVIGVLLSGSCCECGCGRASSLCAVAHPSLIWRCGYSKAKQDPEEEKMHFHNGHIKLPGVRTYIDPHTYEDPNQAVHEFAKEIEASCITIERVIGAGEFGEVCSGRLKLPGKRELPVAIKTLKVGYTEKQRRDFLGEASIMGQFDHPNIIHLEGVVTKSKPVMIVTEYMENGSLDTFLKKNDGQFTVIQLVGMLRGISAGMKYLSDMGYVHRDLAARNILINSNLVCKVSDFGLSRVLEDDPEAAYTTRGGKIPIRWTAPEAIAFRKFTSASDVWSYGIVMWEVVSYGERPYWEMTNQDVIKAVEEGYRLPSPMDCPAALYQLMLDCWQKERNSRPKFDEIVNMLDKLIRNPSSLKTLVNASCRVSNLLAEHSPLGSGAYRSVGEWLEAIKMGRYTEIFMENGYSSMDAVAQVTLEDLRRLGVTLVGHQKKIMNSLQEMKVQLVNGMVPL

`CC(C)N(CCC(=O)c1ccc2ccccc2c1)Cc1ccccc1` showed a residual activity (TSSK1B (human)) of 100%, a residual activity (PIM3 (human)) of 105% and a residual activity (EPHA5 (human)) of 118%. It also gave a residual activity (CAMK2B (human)) of 96.6%, a residual activity (ITK (human)) of 89.9% and a residual activity (MUSK (human)) of 112%. For the same molecule, the residual activity (FES (human)) was 92.7%, the residual activity (RET (human)) was 101% and the residual activity (CDK6 CCND3 (human)) was 102%. For the same molecule, the residual activity (PRKG2 (human)) was 139%, the residual activity (GSK3A (human)) was 98.8% and the residual activity (IKBKB (human)) was 101%. It also gave a residual activity (ULK2 (human)) of 113%, a residual activity (MAP4K5 (human)) of 90.2% and a residual activity (CSF1R (human)) of 98.6%. The residual activity (RIPK2 (human)) was 78.3%, the residual activity (PIM2 (human)) was 104% and the residual activity (MAP3K10 (human)) was 92.6%. For the same molecule, the residual activity (SGK3 (human)) was 106%, the residual activity (NEK1 (human)) was 81.9% and the residual activity (TYRO3 (human)) was 98.9%. The residual activity (OXSR1 (human)) was 106%, the residual activity (CDK3 CCNE1 (human)) was 91.4% and the residual activity (MAP4K4 (human)) was 96.7%. For the same molecule, the residual activity (PRKCI (human)) was 97.1%, the residual activity (PRKCA (human)) was 107% and the residual activity (EGFR (human)) was 99.4%. It also gave a residual activity (MATK (human)) of 80.7%, a residual activity (TEK (human)) of 96.3% and a residual activity (MAPK10 (human)) of 91.1%. For the same molecule, the residual activity (MAP2K2 (human)) was 92.5%, the residual activity (SIK2 (human)) was 103% and the residual activity (RPS6KA1 KD1 KD2 (human)) was 97.6%. For the same molecule, the residual activity (STK3 (human)) was 102%, the residual activity (BRSK1 (human)) was 98% and the residual activity (PASK (human)) was 97.3%. The residual activity [1] was 112%, the residual activity (CAMK4 (human)) was 98.3% and the residual activity (MINK1 (human)) was 101%. For the same molecule, the residual activity (MAPKAPK2 (human)) was 99% and the residual activity (MST1R (human)) was 92.6%.
In the case of `COc1ccc(COc2ccc(Cc3cnc(N)nc3N)cc2OC)cc1`, the residual activity (TSSK1B (human)) is reported as 95.2%, the residual activity (PIM3 (human)) is reported as 95.9% and the residual activity (EPHA5 (human)) is reported as 111%. For the same molecule, the residual activity (CAMK2B (human)) was 100%, the residual activity (ITK (human)) was 98.1% and the residual activity (MUSK (human)) was 102%. It also gave a residual activity (RET (human)) of 108%, a residual activity (CDK6 CCND3 (human)) of 94.5% and a residual activity (RPS6KA2 KD1 KD2 (human)) of 105%. It also gave a residual activity (PRKG2 (human)) of 104%, a residual activity (GSK3A (human)) of 108% and a residual activity (IKBKB (human)) of 99.9%. It also gave a residual activity (ULK2 (human)) of 105%, a residual activity (MAP4K5 (human)) of 97.4% and a residual activity (RIPK2 (human)) of 81.9%. The residual activity (PIM2 (human)) was 107%, the residual activity (MAP3K10 (human)) was 96.4% and the residual activity (SGK3 (human)) was 105%. The residual activity (NEK1 (human)) was 95.6%, the residual activity (TYRO3 (human)) was 110% and the residual activity (OXSR1 (human)) was 103%. For the same molecule, the residual activity (CDK3 CCNE1 (human)) was 82.9%, the residual activity (MAP4K4 (human)) was 99% and the residual activity (PRKCI (human)) was 91.6%. For the same molecule, the residual activity (PRKCA (human)) was 95.9%, the residual activity (EGFR (human)) was 96.9% and the residual activity (MATK (human)) was 94.8%. It also gave a residual activity (TEK (human)) of 101%, a residual activity (MAPK10 (human)) of 84.4% and a residual activity (MAP2K2 (human)) of 101%. It also gave a residual activity (SIK2 (human)) of 98.6%, a residual activity (RPS6KA1 KD1 KD2 (human)) of 92.7% and a residual activity (STK3 (human)) of 98.4%. The residual activity (BRSK1 (human)) was 95.6%, the residual activity (PASK (human)) was 103% and the residual activity [1] was 105%. For the same molecule, the residual activity (CAMK4 (human)) was 94.7%, the residual activity (MINK1 (human)) was 86.5% and the residual activity (MAPKAPK2 (human)) was 103%. For the same molecule, the residual activity (MST1R (human)) was 104%.
Work on `CCOC(=O)c1c(C)[nH]c(/C=C2\C(=O)Nc3ccccc32)c1C` yielded a residual activity (TSSK1B (human)) of 91.2%, a residual activity (PIM3 (human)) of 75.1% and a residual activity (EPHA5 (human)) of 91.9%. The residual activity (CAMK2B (human)) was 96%, the residual activity (ITK (human)) was 86.3% and the residual activity (MUSK (human)) was 88.7%. It also gave a residual activity (FES (human)) of 99.3%, a residual activity (RET (human)) of 40.8% and a residual activity (CDK6 CCND3 (human)) of 84.7%. For the same molecule, the residual activity (RPS6KA2 KD1 KD2 (human)) was 71.4%, the residual activity (PRKG2 (human)) was 78.9% and the residual activity (GSK3A (human)) was 93.5%. For the same molecule, the residual activity (IKBKB (human)) was 101%, the residual activity (ULK2 (human)) was 105% and the residual activity (MAP4K5 (human)) was 84.3%. For the same molecule, the residual activity (CSF1R (human)) was 52.5%, the residual activity (RIPK2 (human)) was 88.3% and the residual activity (PIM2 (human)) was 97.7%. The residual activity (MAP3K10 (human)) was 98.5%, the residual activity (SGK3 (human)) was 88.1% and the residual activity (NEK1 (human)) was 92.5%. The residual activity (TYRO3 (human)) was 96.9%, the residual activity (OXSR1 (human)) was 87.9% and the residual activity (CDK3 CCNE1 (human)) was 94%. For the same molecule, the residual activity (MAP4K4 (human)) was 64.5%, the residual activity (PRKCI (human)) was 92.9% and the residual activity (EGFR (human)) was 92.2%. It also gave a residual activity (MATK (human)) of 101%, a residual activity (MAPK10 (human)) of 86.8% and a residual activity (MAP2K2 (human)) of 102%. The residual activity (SIK2 (human)) was 99.9%, the residual activity (RPS6KA1 KD1 KD2 (human)) was 77.6% and the residual activity (STK3 (human)) was 73.7%. It also gave a residual activity (BRSK1 (human)) of 92.6%, a residual activity (PASK (human)) of 91.4% and a residual activity [1] of 97.1%. The residual activity (CAMK4 (human)) was 97.7%, the residual activity (MINK1 (human)) was 88.9% and the residual activity (MAPKAPK2 (human)) was 98.6%. The residual activity (MST1R (human)) was 87.5%.
